Results as given in PubChem BioAssay (NCI).
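Five compound concentrations were applied to cells in 96-well plates for 48 hours; endpoints were derived by simple linear interpolation of the resulting dose-response curve. TGI: concentration producing complete growth inhibition.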

tested on: SK-MEL-5 melanoma; assay: growth of human tumour cells (NCI), 48 h

Structure (SMILES) | TGI [µM]
Cc1cc(O)c(/C=N/C(=S)NCCc2ccccc2)c(=O)o1 | > 100
Cc1nnc([C@@]2(C)CC[C@H]3[C@@H](CC=C4C[C@@H](O)CC[C@@]43C)[C@@H]2CC#N)o1 | > 100
Cc1ccccc1Nc1cn(COCc2ccccc2)c(=O)[nH]c1=O | > 100
COc1ccc(-c2c(C(C)=O)c(-c3ccccc3)n(C3OC(COC(C)=O)C(OC(C)=O)C(OC(C)=O)C3OC(C)=O)c(=S)c2C#N)cc1 (stereo not given) | > 100
CO/N=C(\C(=O)Nc1cncs1)c1csc(NC(c2ccccc2)(c2ccccc2)c2ccccc2)n1 | > 10
Cc1oc2nc(N(C)C)nc(Cl)c2c1C | > 100
Cn1c(=O)c2c(nc(NCCCCl)n2CC(=O)NCCCCl)n(C)c1=O | > 100
CCCCCCCCCCCCCCCCCc1cccc(OCOCCOC)c1CO | > 100
O=C1CCC(c2ccccc2)C(O)(C(=O)O)C1 (stereo not given) | > 100
CC(=O)O[C@@H]1C=C(C)[C@H](CBr)O[C@@]2(C)CC[C@H](Br)C(C)(C)[C@H]12 | > 100
COc1ccc2c(c1)OCc1c-2oc2ccccc2c1=O | > 100
CCCCn1c(C)c(C(=O)OCC)c2cc(OCc3ccc(C(=O)Nn4c(C)ccc4C)cc3)c(Br)cc21 | > 100
N#CCCN(CCC#N)c1ccc(C(=O)NN)cc1 | > 100
CC1=CC(=O)NP(=O)(Oc2ccc(C)cc2)N1 (stereo not given) | > 100
S=C(/N=c1/sc(Nc2ccccc2)nc2sc3c(c12)CCCC3)Nc1ccccc1 | > 62.5
C/C(=N\NC(=S)N1CC2CCC(CC2)C1)c1ccncn1 | 0.833
COC(=O)CCC(=O)NC1c2cccc3cccc(c23)Cn2c(=O)n(C)c(=O)n21 (stereo not given) | > 100
CCOC(=O)CC(NC(=O)c1nc[nH]c1[N+](=O)[O-])C(=O)OCC (stereo not given) | > 100
N#[O+].O=S(=O)([O-])[O-].[NH2-].[NH2-].[NH2-].[NH2-].[NH2-].[Ru+5] | > 100

tested on: OVCAR-4 ovarian; assay: growth of human tumour cells (NCI), 48 h

Structure (SMILES) | TGI [µM]
Cc1cc(=O)[nH]c(NNC(C#N)c2ccc(O)cc2)n1 (stereo not given) | > 100
O=C(CSc1nnc(Cc2ccccc2)o1)Nc1cccc([N+](=O)[O-])c1 | > 100
O=c1[nH]nc(-c2cccc(Br)c2)[nH]1 | > 100
CN(C)/N=C(\CCN1CCCC1)CC(c1ccccc1)c1c(O)c2ccccc2oc1=O (stereo not given) | > 100
O=P(c1ccccc1)(c1ccccc1)C(NCc1ccccc1)c1ccc(F)cc1 (stereo not given) | 92.6
COc1cc2c(c(OC)c1OC)-c1ccc(SC)c(=O)cc1C(CC(=O)Oc1ccc([N+](=O)[O-])cc1)C2 (stereo not given) | > 43.6
CC(=O)NC(CCCN)C(=O)NCc1ccccc1 (stereo not given) | > 100
Cc1cc(O)c(/C=N/C(=S)NCCc2ccccc2)c(=O)o1 | > 100
Cc1nnc([C@@]2(C)CC[C@H]3[C@@H](CC=C4C[C@@H](O)CC[C@@]43C)[C@@H]2CC#N)o1 | > 100
Cc1ccccc1Nc1cn(COCc2ccccc2)c(=O)[nH]c1=O | > 100
COc1ccc(-c2c(C(C)=O)c(-c3ccccc3)n(C3OC(COC(C)=O)C(OC(C)=O)C(OC(C)=O)C3OC(C)=O)c(=S)c2C#N)cc1 (stereo not given) | > 100
CO/N=C(\C(=O)Nc1cncs1)c1csc(NC(c2ccccc2)(c2ccccc2)c2ccccc2)n1 | > 10
Cc1oc2nc(N(C)C)nc(Cl)c2c1C | > 100
Cn1c(=O)c2c(nc(NCCCCl)n2CC(=O)NCCCCl)n(C)c1=O | > 100
CCCCCCCCCCCCCCCCCc1cccc(OCOCCOC)c1CO | > 100
O=C1CCC(c2ccccc2)C(O)(C(=O)O)C1 (stereo not given) | > 100
CC(=O)O[C@@H]1C=C(C)[C@H](CBr)O[C@@]2(C)CC[C@H](Br)C(C)(C)[C@H]12 | > 100
CCCCn1c(C)c(C(=O)OCC)c2cc(OCc3ccc(C(=O)Nn4c(C)ccc4C)cc3)c(Br)cc21 | > 100
N#CCCN(CCC#N)c1ccc(C(=O)NN)cc1 | > 100
CC1=CC(=O)NP(=O)(Oc2ccc(C)cc2)N1 (stereo not given) | > 100
S=C(/N=c1/sc(Nc2ccccc2)nc2sc3c(c12)CCCC3)Nc1ccccc1 | > 62.5
C/C(=N\NC(=S)N1CC2CCC(CC2)C1)c1ccncn1 | 9.92
COC(=O)CCC(=O)NC1c2cccc3cccc(c23)Cn2c(=O)n(C)c(=O)n21 (stereo not given) | > 100
CCOC(=O)CC(NC(=O)c1nc[nH]c1[N+](=O)[O-])C(=O)OCC (stereo not given) | > 100

tested on: T-47D breast; assay: growth of human tumour cells (NCI), 48 h

Structure (SMILES) | TGI [µM]
O=C(CC(=O)n1nc(-c2ccccc2)c(N=Nc2ccc(Cl)cc2)c1-c1ccccc1)Nc1cccc(Cl)c1 | > 100
O=c1[nH]nc(-c2cccc(Br)c2)[nH]1 | > 100
COc1cccc(C2c3cc4c(cc3OC(N3CCCC3)C2C)OCO4)c1 (stereo not given) | 70.9
O=P(c1ccccc1)(c1ccccc1)C(NCc1ccccc1)c1ccc(F)cc1 (stereo not given) | 60.7
Cc1cc(O)c(/C=N/C(=S)NCCc2ccccc2)c(=O)o1 | > 100
COc1ccc(-c2c(C(C)=O)c(-c3ccccc3)n(C3OC(COC(C)=O)C(OC(C)=O)C(OC(C)=O)C3OC(C)=O)c(=S)c2C#N)cc1 (stereo not given) | > 100
CO/N=C(\C(=O)Nc1cncs1)c1csc(NC(c2ccccc2)(c2ccccc2)c2ccccc2)n1 | > 10
Cc1oc2nc(N(C)C)nc(Cl)c2c1C | > 100
Cn1c(=O)c2c(nc(NCCCCl)n2CC(=O)NCCCCl)n(C)c1=O | > 100
CCCCn1c(C)c(C(=O)OCC)c2cc(OCc3ccc(C(=O)Nn4c(C)ccc4C)cc3)c(Br)cc21 | > 100
C/C(=N\NC(=S)N1CC2CCC(CC2)C1)c1ccncn1 | 3.48

tested on: IGROV1 ovarian; assay: growth of human tumour cells (NCI), 48 h

Structure (SMILES) | TGI [µM]
O=C1c2ccccc2S[C@@H](O)[C@@H]2CCCN12 | 87.9
